Publication PMC6384758, “Profiling and Pharmacokinetic Studies of Alkaloids in Rats After Oral Administration of Zanthoxylum nitidum Decoction by UPLC-Q-TOF-MS/MS and HPLC-MS/MS” (Molecules, 2019)
Where two headings read alike, the source gives them in different places. Values belong to the compound of their own block, whether it stands above or below them.

Experiments:
[1] = Pharmacokinetic study in rats after oral administration of Z. nitidum decoction (HPLC-MS/MS); type: in vivo, Sprague–Dawley rats; details: for AUC(0-t) / AUC(0-inf) / Cmax / half-life / Tmax: Sprague-Dawley
Method: The HPLC analysis performed on a Surveyor plus HPLC system (Thermo Fisher Scientific, Waltham, MA, USA). The separation was executed by a Thermo Accucore aq C18 column (100 × 2.1 mm, 2.6 μm) (Thermo Fisher Scientific, Waltham, MA, USA) maintained at 30 °C. The mobile phase consisted of Solvent A (0.1% formic acid solution) and Solvent B (0.1% formic acid acetonitrile). The flow rate was 0.3 mL/min. The gradient program was as follows: 5–10% B at 0–5 min; 10–100% B at 5–15 min; 100–5% B at 15–15.1 min; 5% B at 15–20 min.
MS data were achieved on a triple-quadrupole mass spectrometer: TSQ Quantum Access (Thermo Fisher Scientific, Waltham, MA, USA) with electrospray ionization (ESI) source in positive mode. The instrument parameters were as follows: spray voltage at 3000 V, sheath gas and auxiliary gas with a flow of 30 and 5 arbitrary units, capillary temperature at 350 °C, collision gas pressure at 1.0 mTorr, skimmer offset at 2 V. The selected reaction monitoring (SRM) transitions used for MS analysis were as follows: m/z 342→297 for magnoflorine, 370→188 for α-allocryptopine, 260→227 for skimmianine, 356→192 for IS; the collision energies at 15 eV for magnoflorine, 30 eV for α-allocryptopine, skimmianine and IS. The data acquisition and processing was performed with Xcalibur 2.0 software (Thermo Fisher Scientific, Waltham, MA, USA).
100 μL plasma sample, 10 μL IS solution (200 ng/mL) and 300 μL acetonitrile were added to a 1.5 mL eppendorf tube and vortex-mixed for 5 min, then centrifuged at 13,000 (15,493× g) rpm for 10 min. The supernatant was transferred into another eppendorf tube and evaporated to dryness at 35 °C in vacuum using SpeedVac Concentration ((RVC 2-18, Christ). The residue was reconstituted in 100 μL acetonitrile and water (50:50, v/v) and centrifuged at 13,000 rpm (15,493× g) for 15 min.
For pharmacokinetic study, six rats were orally administered Z. nitidum decoction at a dose of 5.4 mL kg^−1 (5.4 mL decoction equal to 10.8 g crude drug) body weight. The blood samples were collected from orbital vein before dose and 0.17, 0.33, 0.67, 1, 2, 3, 4, 6, 8, 10, 12, and 24 after dose. The blood samples were then centrifuged at 3500 rpm (1274× g) for 15 min at 4 °C. The samples were stored at −80 °C. Data analysis was performed by Drug and Statistics (DAS) 2.0 software (Mathematical Pharmacology Professional Committee of China, Shanghai, China).

[2] = Stability of analytes in rat plasma under storage conditions; type: in vitro ADME
Method: The selectivity was assessed by analyzing the chromatograms of blank plasma of six different rats, a blank plasma with magnoflorine, α-allocryptopine, skimmianine and IS, and a plasma after dose. The linearity was determined by plotting the peak areas ratios (y) of each analyte to IS against the concentrations, and evaluated by least-squares linear regression. The lower limit of quantification (LLOQ) was defined as the lowest concentration point of the calibration curve (S/N > 10) with the accuracy within ±20% and precision lower than 20%. The accuracy and precision were evaluated by analyzing the six replicate QC samples on the same day (intra-day) and three consecutive days. The accuracy and precision were expressed as relative error (RE%) and relative standard deviation (RSD%), respectively. The extraction recovery was determined by comparing peak areas of the extracted QC samples with those of post-extracted spiked samples. The matrix effects was measured by calculated the analytes peak area ratios of post-extracted spiked samples to those of pure work solution. The stability was investigated by analyzing samples stability under diverse storage conditions: three freeze-thaw cycles, 8 h at 25 °C, −80 °C for 40 days and in autosampler for 24 h.

[3] = rats, oral Z. nitidum decoction

Structure (SMILES): COc1ccc2c(c[n+](C)c3c4cc5c(cc4ccc23)OCO5)c1OC [chelerythrine]
absorption (in words) ([1]; preliminary experiment, rats, oral Z. nitidum decoction): poor absorption

Structure (SMILES): COc1ccc2c(c1OC)CN(C)CCc1cc3c(cc1C(=O)C2)OCO3 [α-allocryptopine]
AUC(0-t) ([1]; in vivo, rat plasma, oral Z. nitidum decoction 5.4 mL kg−1, Mean ± SD, n = 6, read-out: AUC0-t): 180 ± 96.3 ng·h/mL
AUC(0-inf) ([1]; in vivo, rat plasma, oral Z. nitidum decoction 5.4 mL kg−1, Mean ± SD, n = 6, read-out: AUC0-∞): 186 ± 98.7 ng·h/mL
Cmax ([1]; in vivo, rat plasma, oral Z. nitidum decoction 5.4 mL kg−1, Mean ± SD, n = 6, read-out: Cmax): 100 ± 49.9 ng/mL
half-life ([1]; in vivo, rat plasma, oral Z. nitidum decoction 5.4 mL kg−1, Mean ± SD, n = 6, read-out: T1/2 (converted)): 46.8 ± 10.2 min
Tmax ([1]; in vivo, rat plasma, oral Z. nitidum decoction 5.4 mL kg−1, Mean ± SD, n = 6, read-out: Tmax): 28.2 ± 7.8 min
Cmax compared with that of skimmianine [1, 3]: about ten times higher
Stability, RE (%) ([2]; rat plasma, 8 h at room temperature, 5 ng/mL, n = 6): 12.53%
Stability, RE (%) ([2]; rat plasma, 8 h at room temperature, 50 ng/mL, n = 6): −7.13%
Stability, RE (%) ([2]; rat plasma, 8 h at room temperature, 160 ng/mL, n = 6): 3.27%
Stability, RE (%) ([2]; rat plasma, 24 h at 4 °C, 5 ng/mL, n = 6): 2.99%
Stability, RE (%) ([2]; rat plasma, 24 h at 4 °C, 50 ng/mL, n = 6): −6.21%
Stability, RE (%) ([2]; rat plasma, 24 h at 4 °C, 160 ng/mL, n = 6): 7.75%
Stability, RE (%) ([2]; rat plasma, 40 days at −80 °C, 5 ng/mL, n = 6): 8.59%
Stability, RE (%) ([2]; rat plasma, 40 days at −80 °C, 50 ng/mL, n = 6): −4.82%
Stability, RE (%) ([2]; rat plasma, 40 days at −80 °C, 160 ng/mL, n = 6): −6.91%
Stability, RE (%) ([2]; rat plasma, three freeze-thaw cycle, 5 ng/mL, n = 6): 8.97%
Stability, RE (%) ([2]; rat plasma, three freeze-thaw cycle, 50 ng/mL, n = 6): −5.58%
Stability, RE (%) ([2]; rat plasma, three freeze-thaw cycle, 160 ng/mL, n = 6): 4.24%

Results, then the compound that gave them:

absorption (in words) ([1]; rat, in vivo, po): poor absorption
Structure (SMILES): COc1cc2c[n+](C)c3c4cc5c(cc4ccc3c2cc1OC)OCO5 [nitidine]

AUC(0-inf) ([1]; rat, in vivo, po): 17.1 ± 6.32 ng·h/mL
AUC(0-t) ([1]; rat, in vivo, po): 11.1 ± 2.02 ng·h/mL
Cmax ([1]; rat, in vivo, po): 8.91 ± 1.89 ng/mL
Tmax ([1]; rat, in vivo, po): 22.8 ± 7.2 min
half-life ([1]; rat, in vivo, po): 359 ± 97.2 min
Stability, RE (%) ([2]; rat, 1 ng/mL): 10.43%
Stability, RE (%) ([2]; rat, 10 ng/mL): −5.95%
Stability, RE (%) ([2]; rat, 32 ng/mL): −9.01%
Stability, RE (%) ([2]; rat, 8 h, 1 ng/mL): −9.41%
Stability, RE (%) ([2]; rat, 8 h, 10 ng/mL): 6.62%
Stability, RE (%) ([2]; rat, 8 h, 32 ng/mL): 9.51%
Stability, RE (%) ([2]; rat, 24 h, 1 ng/mL): 9.47%
Stability, RE (%) ([2]; rat, 24 h, 10 ng/mL): −4.39%
Stability, RE (%) ([2]; rat, 24 h, 32 ng/mL): −1.09%
Stability, RE (%) ([2]; rat, 40 days, 1 ng/mL): 9.69%
Stability, RE (%) ([2]; rat, 40 days, 10 ng/mL): −6.48%
Stability, RE (%) ([2]; rat, 40 days, 32 ng/mL): −4.07%
Structure (SMILES): COc1ccc2c(OC)c3ccoc3nc2c1OC [Skimmianine, skimmianine]

AUC(0-t) ([1]; rat plasma, oral Z. nitidum decoction 5.4 mL kg−1, Mean ± SD, n = 6, read-out: AUC0-t): 408 ± 91.3 ng·h/mL
AUC(0-inf) ([1]; rat plasma, oral Z. nitidum decoction 5.4 mL kg−1, Mean ± SD, n = 6, read-out: AUC0-∞): 438 ± 106 ng·h/mL
Cmax ([1]; rat plasma, oral Z. nitidum decoction 5.4 mL kg−1, Mean ± SD, n = 6, read-out: Cmax): 113 ± 18.8 ng/mL
half-life ([1]; rat plasma, oral Z. nitidum decoction 5.4 mL kg−1, Mean ± SD, n = 6, read-out: T1/2 (converted)): 194 ± 78.6 min
Tmax ([1]; rat plasma, oral Z. nitidum decoction 5.4 mL kg−1, Mean ± SD, n = 6, read-out: Tmax): 63 ± 42.6 min
Cmax compared with that of skimmianine [1, 3]: about ten times higher
total exposure AUC0–∞ compared among the three components (in words) [1, 3]: the largest
Stability, RE (%) ([2]; rat, 5 ng/mL): −10.00%
Stability, RE (%) ([2]; rat, 50 ng/mL): 11.03%
Stability, RE (%) ([2]; rat, 160 ng/mL): 9.16%
Stability, RE (%) ([2]; rat, 8 h, 5 ng/mL): −5.14%
Stability, RE (%) ([2]; rat, 8 h, 50 ng/mL): 6.87%
Stability, RE (%) ([2]; rat, 8 h, 160 ng/mL): 5.74%
Stability, RE (%) ([2]; rat, 24 h, 5 ng/mL): −5.59%
Stability, RE (%) ([2]; rat, 24 h, 50 ng/mL): 9.24%
Stability, RE (%) ([2]; rat, 24 h, 160 ng/mL): 4.61%
Stability, RE (%) ([2]; rat, 40 days, 5 ng/mL): 10.17%
Stability, RE (%) ([2]; rat, 40 days, 50 ng/mL): −8.92%
Stability, RE (%) ([2]; rat, 40 days, 160 ng/mL): 5.74%
Structure (SMILES): COc1ccc2c(c1O)-c1c(O)c(OC)cc3c1[C@H](C2)[N+](C)(C)CC3 [Magnoflorine, magnoflorine]
